Measurements published in PubChem BioAssay (NCI).
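48-hour exposure; five concentrations; linearly interpolated endpoints. TGI: concentration producing complete growth inhibition.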

How the values were obtained:
Test in all cases: NCI tumour cell line growth inhibition, 48 h
CCRF-CEM leukemia = test system: CCRF-CEM leukemia
HOP-62 NSCLC = test system: HOP-62 NSCLC
HCT-116 colon = test system: HCT-116 colon
SF-295 CNS = test system: SF-295 CNS
MOLT-4 leukemia = test system: MOLT-4 leukemia
NCI-H23 lung = test system: NCI-H23 lung
T-47D breast = test system: T-47D breast
SF-539 CNS = test system: SF-539 CNS
SK-OV-3 ovarian = test system: SK-OV-3 ovarian
RXF 393 renal = test system: RXF 393 renal
HCT-15 colon = test system: HCT-15 colon
OVCAR-8 ovarian = test system: OVCAR-8 ovarian
A549 NSCLC = test system: A549 NSCLC
MALME-3M melanoma = test system: MALME-3M melanoma
EKVX NSCLC = test system: EKVX NSCLC
SK-MEL-28 melanoma = test system: SK-MEL-28 melanoma
LOX IMVI melanoma = test system: LOX IMVI melanoma
COLO 205 colon = test system: COLO 205 colon
ACHN renal = test system: ACHN renal
A498 renal = test system: A498 renal
SK-MEL-2 melanoma = test system: SK-MEL-2 melanoma
NCI-H226 lung = test system: NCI-H226 lung
TK-10 renal = test system: TK-10 renal
HT29 colon = test system: HT29 colon
SK-MEL-5 melanoma = test system: SK-MEL-5 melanoma
M14 melanoma = test system: M14 melanoma
SNB-19 CNS = test system: SNB-19 CNS
OVCAR-3 ovarian = test system: OVCAR-3 ovarian
MCF7 breast = test system: MCF7 breast
U251 CNS = test system: U251 CNS
HS 578T breast = test system: HS 578T breast
OVCAR-5 ovarian = test system: OVCAR-5 ovarian
NCI-H522 lung = test system: NCI-H522 lung
BT-549 breast = test system: BT-549 breast
MDA-MB-231 breast = test system: MDA-MB-231 breast
HL-60(TB) leukemia = test system: HL-60(TB) leukemia
CAKI-1 renal = test system: CAKI-1 renal
MDA-N = test system: MDA-N
SF-268 CNS = test system: SF-268 CNS
NCI/ADR-RES ovarian = test system: NCI/ADR-RES ovarian
PC-3 prostate = test system: PC-3 prostate
786-0 renal = test system: 786-0 renal
HOP-92 NSCLC = test system: HOP-92 NSCLC
SNB-75 CNS = test system: SNB-75 CNS
SN12C renal = test system: SN12C renal
IGROV1 ovarian = test system: IGROV1 ovarian
SR leukemia = test system: SR leukemia
KM12 colon = test system: KM12 colon
DU-145 prostate = test system: DU-145 prostate
MDA-MB-435 = test system: MDA-MB-435
UO-31 renal = test system: UO-31 renal
NCI-H460 lung = test system: NCI-H460 lung
SW-620 colon = test system: SW-620 colon
UACC-62 melanoma = test system: UACC-62 melanoma
RPMI-8226 leukemia = test system: RPMI-8226 leukemia
OVCAR-4 ovarian = test system: OVCAR-4 ovarian
K-562 leukemia = test system: K-562 leukemia
UACC-257 melanoma = test system: UACC-257 melanoma

Measured: TGI

NC(=O)C1CCCNC1 (centres undefined)
not listed: K-562 leukemia | UACC-257 melanoma
> 100 µM: all other assays above

O=C(O)C1(Nc2ccc(Cl)cc2)CCCC1
not listed: MOLT-4 leukemia | SF-539 CNS | UACC-257 melanoma
> 100 µM: all other assays above

c1ccc(COC2NCCN2Cc2ccccc2)cc1 (centres undefined)
> 100 µM: all assays above
